“Also recorded” adds a separate entry of the source. Like-named read-outs stand apart in the source and are kept apart here.
Key:
[1] = tested on: nicotinic receptor; experiment: Resting cortical cerebral blood flow (CBF) in rats, iv administration; format: in vivo, rat; conditions: for Resting Cortical CBF, % of Resting CONTROL: mean (SEM), (+) N = 5 rats, (-) N = 3 rats; for effect on resting CBF: 0.1-3.0 mg/kg, result in words
Description: (§1) Methods for surgical preparations of rats for electrical stimulation of brain and measurement of cortical CBF are detailed by Linville and Arneric (1991).
(§2) Intravenous (iv) administration of (+) 2-methylpiperidine ((+)2-MP) and (-)2-MP (0.1-3.0 mg/kg) were examined for their effect on mean arterial pressure (MAP), resting CBF and increases in cortical CBF elicited by electrically stimulating the BF (.perspectiveto.25 Hz; 100 uA; 10 sec. train).

[2] = tested on: nicotinic receptor; experiment: Cortical CBF response elicited by electrical stimulation of the basal forebrain (BF) in rats; format: in vivo, rat; conditions: iv; for BF-Elicited CBF Response, % of Resting Cortical CBF: mean (SEM), (+) N = 5 rats, (-) N = 3 rats; for effect on BF-elicited CBF response: 0.1-3.0 mg/kg, result in words
Description: as §1, §2

[3] = Mean arterial pressure (MAP) in rats, iv administration; format: in vivo, rat; conditions: for Mean Arterial Pressure (MAP): mean (SEM), (+) N = 5 rats, (-) N = 3 rats; for effect on mean arterial pressure / blood pressure: 0.1-3.0 mg/kg, result in words
Description: as §1, §2

[4] = tested on: male CD1 mice; experiment: Acute lethality in mice within 24 hours; format: in vivo, mouse; conditions: for Deaths in 24 hours / tolerability: i.p.; for Deaths in 24 hours: mandelic acid salt, deaths/animals; for tolerability: 30 and 100 mg/kg
Text: Compounds were given as the respective mandelic acid salts.

[5] = tested on: mouse; experiment: (-)Nicotine induced mouse lethality after pretreatment; format: in vivo
[6] = tested on: CD1 mice; experiment: Mouse elevated-plus maze (conflict test, anxiolytic activity); format: in vivo
Description: FIG. 1A is a graph of time mice spend in the open arms of the elevated-plusmaze (a conflict test that probes anxiolytic activity) as a function of the dose of (-)nicotine administered to the mice.
FIG. 1B is a graph of time mice spend in the open arms of the elevated-plusmaze as a function of the administration of (+)2-methylpiperidine (0.1 mg/kg) or (-)nicotine administered separately or in combination.
The mouse elevated-plus maze is a conflict test that probes anxiolytic activity (Lister, Pyschopharmacology, 1987, 92:180). It is based on the fact that exposure of mice to an elevated open arm leads to an avoidance response considerably stronger than that evoked by exposure to an enclosed arm.
The apparatus required to perform this test is made of plexiglass and consists of two open arms (17×8 cm) and two enclosed arms (17×8×15 cm) extending from a central platform (8×8 cm). It is mounted on an opaque plexiglass base rising 39 cm above the floor. Mice are released on one of the open arms and the time spent in the open and enclosed arms is recorded during a 5 min. test period.
CD1 mice (n=8 per group) received systemic (-)nicotine injections (0, 0.03, 0.1 or 0.3 mg/kg, IP) fifteen minutes before they were allowed to explore the plus-maze for a 5 minute test period.

[7] = (-)Nicotine induced mouse lethality after pretreatment; format: in vivo; conditions: mouse, in vivo, ip; saline pretreatment; read-out: LD50 [95% C.I.] of (-)nicotine
[8] = Combined effects of (-)nicotine and (+)2-methylpiperidine on rectal temperatures of mice; format: in vivo, mouse; conditions: for Rectal temperature: mean ± S.E.M.
[9] = tested on: Adult male CD1 mice; experiment: Habituation / locomotor activity in automated activity monitors; format: in vivo, mouse; conditions: for locomotor activity, first 10 min after introduction to the novel environment: Saline=3680±169
Description: Adult male CD1 mice (n=8/group) were injected with (+)2-methylpiperidine (0, 1.0, 3.0 or 10.0 mg/kg, i.p.) immediately prior or 60 min. prior to placement in automated activity monitors (Omnitech, Columbus, Ohio). These enclosures, measuring 40×40×42 cm, are equipped with a series of photocells and generate measurements of a variety of locomotor activities.

[10] = Hypothermia: rectal temperature of mice; format: in vivo, mouse; conditions: i.p.; for Rectal temperature 15 min. later: saline 38.3 ± 0.1, mean ± S.E.M.
Description: Adult male CD1 mice (n=5-7/group) were injected with (+)2-methylpiperidine (0, 10 or 100 mg/kg, i.p.) and rectal temperatures were assessed (YSI Model 43 TA) 15 min. later.

[11] = tested on: rat brain receptor sites; conditions: cited from earlier work
[12] = tested on: CD1 mice; conditions: known anxiolytic drug, background of the test; cited from earlier work
[13] = 0.1 mg/kg, dose 0: (+) 100 (10), (-) 100 (13)
[14] = 0.1 mg/kg, dose 0: (+) 153 (11), (-) 130 (8)
[15] = 0.1 mg/kg, dose 0: (+) 76 (3), (-) 90 (6)
[16] = pretreatment 10.0 mg/kg, (-)nicotine 3 mg/kg
[17] = pretreatment 10.0 mg/kg, (-)nicotine 6 mg/kg
[18] = pretreatment 10.0 mg/kg, (-)nicotine 9 mg/kg

CC1CCCCN1 (single isomer, unassigned; (-)) [(-)2-methylpiperidine, reference compound]
Resting Cortical CBF, % of Resting CONTROL [1, 13]: 99 (32) %
Resting Cortical CBF, % of Resting CONTROL ([1]; 0.3 mg/kg): 86 (29) %
Resting Cortical CBF, % of Resting CONTROL ([1]; 1.0 mg/kg): 74 (27) %
Resting Cortical CBF, % of Resting CONTROL ([1]; 3.0 mg/kg): 70 (30) %
effect on resting CBF [1]: no ability to enhance
BF-Elicited CBF Response, % of Resting Cortical CBF [2, 14]: 113 (30) %
BF-Elicited CBF Response, % of Resting Cortical CBF ([2]; 0.3 mg/kg): 101 (28) %
BF-Elicited CBF Response, % of Resting Cortical CBF ([2]; 1.0 mg/kg): 88 (26) %
BF-Elicited CBF Response, % of Resting Cortical CBF ([2]; 3.0 mg/kg): 81 (30) %
effect on BF-elicited CBF response [2]: no ability to enhance
Mean Arterial Pressure (MAP) [3, 15]: 78 (4) mmHg
Mean Arterial Pressure (MAP) ([3]; 0.3 mg/kg): 83 (4) mmHg
Mean Arterial Pressure (MAP) ([3]; 1.0 mg/kg): 80 (8) mmHg
Mean Arterial Pressure (MAP) ([3]; 3.0 mg/kg): 73 (4) mmHg
Deaths in 24 hours ([4]; 30 mg/kg): 0/5
Deaths in 24 hours ([4]; 100 mg/kg): 0/5
tolerability [4]: well tolerated by male CD1 mice, and did not cause any deaths within 24 hours
DEATHS/24 hours [5, 16]: 0/6
DEATHS/24 hours [5, 17]: 0/6
DEATHS/24 hours [5, 18]: 4/6

CN1CCCC1c1cccnc1 (single isomer, unassigned; (-)) [(-)nicotine, reference compound]
time spent in the open arms (anxiolytic effect) ([6]; (-)nicotine 0.1 and 0.3 mg/kg, IP, 15 min before test, p<0.05 vs saline, n=8): significant increase in the time spent by the mice in the open arms
anxiolytic activity of the low (-)nicotine dose given alone ([6]; (-)nicotine dose used in the combination of FIG. 1B): non-effective
death of animals ([4]; (-)nicotine 9.0 mg/kg): 4 out of 6
signs of cholinostimulation ([4]; (-)nicotine 9.0 mg/kg): dyspnea and decreased activity
LD50 [7]: 7.7 mg/kg
DEATHS/24 hours ([5]; (-)nicotine 3 mg/kg, saline pretreatment): 0/6
DEATHS/24 hours ([5]; (-)nicotine 6 mg/kg, saline pretreatment): 2/8
DEATHS/24 hours ([5]; (-)nicotine 9 mg/kg, saline pretreatment): 4/6
effect on temperature ([8]; (-)nicotine 0.3 and 1.0 mg/kg, i.p.): significantly lowered temperature
Rectal temperature ([8]; saline pretreatment, (-)nicotine 0.3 mg/kg, * p<0.05 vs saline (38.3 ± 0.1)): 36.9 ± 0.2 °C
Rectal temperature ([8]; saline pretreatment, (-)nicotine 1.0 mg/kg, * p<0.05 vs saline (38.3 ± 0.1)): 36.5 ± 0.6 °C

CC1CCCCN1 (racemic) [(+)2-methylpiperidine, (+)-2-methylpiperidine]
Resting Cortical CBF, % of Resting CONTROL [1, 13]: 126 (15) %
Resting Cortical CBF, % of Resting CONTROL ([1]; 0.3 mg/kg): 133 (22) %
Resting Cortical CBF, % of Resting CONTROL ([1]; 1.0 mg/kg): 146 (28) %
Resting Cortical CBF, % of Resting CONTROL ([1]; 3.0 mg/kg): 140 (27) %
effect on resting CBF ([1]; listed as (+)2-MP): effective in enhancing resting CBF
effect on resting CBF ([1]; listed as (+)-2MP): enhanced
BF-Elicited CBF Response, % of Resting Cortical CBF [2, 14]: 203 (21) %
BF-Elicited CBF Response, % of Resting Cortical CBF ([2]; 0.3 mg/kg): 222 (20) %
BF-Elicited CBF Response, % of Resting Cortical CBF ([2]; 1.0 mg/kg): 222 (23) %
BF-Elicited CBF Response, % of Resting Cortical CBF ([2]; 3.0 mg/kg): 220 (19) %
effect on BF-elicited CBF response ([2]; listed as (+)2-MP): effective in enhancing resting CBF and the BF-elicited CBF response
effect on BF-elicited CBF response ([2]; listed as (+)-2MP): enhanced
Mean Arterial Pressure (MAP) [3, 15]: 82 (6) mmHg
Mean Arterial Pressure (MAP) ([3]; 0.3 mg/kg): 87 (5) mmHg
Mean Arterial Pressure (MAP) ([3]; 1.0 mg/kg): 92 (7) mmHg
Mean Arterial Pressure (MAP) ([3]; 3.0 mg/kg): 87 (7) mmHg
effect on mean arterial pressure / blood pressure [3]: no overt on blood pressure
effect on mean arterial pressure / blood pressure ([3]; listed as (+)2-MP): No remarkable effects
anxiolytic activity in combination with a non-effective dose of (-)nicotine ([6]; (+)2-methylpiperidine 0.1 mg/kg, IP, 5 min prior to (-)nicotine (FIG. 1B), n=8): able to enhance the anxiolytic activity of a non-effective dose of (-)nicotine
locomotor activity, first 10 min after introduction to the novel environment ([9]; 3.0 mg/kg, i.p., 60 min prior): 3402±164 activity counts
locomotor activity, first 10 min after introduction to the novel environment ([9]; 10 mg/kg, i.p., 60 min prior): 3349±126 activity counts
effect on the habituation process ([9]; 1.0, 3.0 or 10.0 mg/kg, i.p., drug-by-time interaction p<0.02): dose-related enhancement of the habituation process
effect on locomotor activity (impairment or sedation) ([9]; 3.0 or 10.0 mg/kg, 60 min prior, first 10 min): did not significantly decrease the high level of locomotor activity
Rectal temperature 15 min. later ([10]; 10 mg/kg, baseline 38.2 ± 0.1): 38.2 ± 0.1 °C
Rectal temperature 15 min. later ([10]; 100 mg/kg, baseline 38.3 ± 0.1): 38.2 ± 0.2 °C
effect on rectal temperature ([10]; 10 or 100 mg/kg, 15 min, as well as 60 and 120 min later): without effect
Deaths in 24 hours ([4]; 30 mg/kg): 0/5
Deaths in 24 hours ([4]; 100 mg/kg): 0/5
tolerability [4]: well tolerated by male CD1 mice, and did not cause any deaths within 24 hours
effect on the lethality elicited by (-)nicotine ([5]; i.p. (-)nicotine, result in words): did not potentiate the lethality; also recorded: does not potentiate (-)nicotine induced acute lethality
DEATHS/24 hours ([5]; pretreatment 0.1 mg/kg, (-)nicotine 3 mg/kg): 0/6
DEATHS/24 hours ([5]; pretreatment 0.1 mg/kg, (-)nicotine 6 mg/kg): 1/6
DEATHS/24 hours ([5]; pretreatment 0.1 mg/kg, (-)nicotine 9 mg/kg): 2/6
DEATHS/24 hours [5, 16]: 0/6
DEATHS/24 hours [5, 17]: 1/8
DEATHS/24 hours [5, 18]: 3/6
Rectal temperature ([8]; (+)2-MP 0.1 mg/kg (so in the source) pretreatment, then (-)nicotine 1.0 mg/kg, * p<0.05): 36.0 ± 0.7 °C
Rectal temperature ([8]; (+)2-MP 1.0 mg/kg pretreatment, then (-)nicotine 0.3 mg/kg): 37.8 ± 0.2 °C
Rectal temperature ([8]; (+)2-MP 10.0 mg/kg pretreatment, then (-)nicotine 0.3 mg/kg): 37.5 ± 0.3 °C
Rectal temperature ([8]; (+)2-MP 10.0 mg/kg pretreatment, then (-)nicotine 1.0 mg/kg, * p<0.05): 36.5 ± 0.5 °C
effect on the hypothermic response to (-)nicotine ([8]; (+)2-methylpiperidine 1 and 10 mg/kg, i.p., 3 min. prior to (-)nicotine): did not potentiate the hypothermic response to (-)nicotine; also recorded: the hypothermic response of the low dose of (-)nicotine (0.3 mg/kg) was actually attenuated; also recorded: the higher dose of (-)nicotine was unaffected
enhancement of the binding of nicotine / nicotinic ligands ([11]; Sloan et al. 1985, listed as (+)isomer of (±)2-methylpiperidine): enhances the binding of nicotinic ligands to rat brain receptor sites

CN1C(=O)CN=C(c2ccccc2)c2cc(Cl)ccc21 [diazepam]
time spent in open arms, known anxiolytic drugs [12]: increased in a dose-related way

CC1CCCCN1 (racemic) [(±)-2-methylpiperidine, reference compound]
enhancement of the binding of nicotine / nicotinic ligands ([11]; Sloan et al. 1985): high degree of specificity in enhancing the binding of nicotine in the rat brain

Reference: patent US5272155A, “(+)-2-methylpiperidine as modulator of cholinergic systems” (Abbott Laboratories, priority 1991, dated 1993)
